Activity calls are given as the source filed them.
What was measured:
[1] = Trypanosoma cruzi growth suppression in host cells – NIH3T3 host cells, beta-gal luminescence, confirmation (AID 2044); format: functional, cell-based;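 further: intracellular parasites grown in NIH/3T3 mouse fibroblasts as host cells; luminescent beta-galactosidase reporter signal from transgenic T. cruzi replicating inside host cells; inhibitors lower the luminescence signal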
[2] = NIH3T3 cell viability loss – ATP luminescence, mouse fibroblasts, counter-screen, dose response (AID 2010); format: functional, cell-based;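 further: cells exposed to compound for about 90 hours before reading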
[3] = target: T1, Replicative DNA helicase DnaB (Mycobacterium tuberculosis, UniProt P9WMR3); experiment: DnaB intein splicing inhibitors, dose response, biochemical, cell-free fluorescence (AID 449749); format: functional
T1 sequence (P9WMR3 whole entry): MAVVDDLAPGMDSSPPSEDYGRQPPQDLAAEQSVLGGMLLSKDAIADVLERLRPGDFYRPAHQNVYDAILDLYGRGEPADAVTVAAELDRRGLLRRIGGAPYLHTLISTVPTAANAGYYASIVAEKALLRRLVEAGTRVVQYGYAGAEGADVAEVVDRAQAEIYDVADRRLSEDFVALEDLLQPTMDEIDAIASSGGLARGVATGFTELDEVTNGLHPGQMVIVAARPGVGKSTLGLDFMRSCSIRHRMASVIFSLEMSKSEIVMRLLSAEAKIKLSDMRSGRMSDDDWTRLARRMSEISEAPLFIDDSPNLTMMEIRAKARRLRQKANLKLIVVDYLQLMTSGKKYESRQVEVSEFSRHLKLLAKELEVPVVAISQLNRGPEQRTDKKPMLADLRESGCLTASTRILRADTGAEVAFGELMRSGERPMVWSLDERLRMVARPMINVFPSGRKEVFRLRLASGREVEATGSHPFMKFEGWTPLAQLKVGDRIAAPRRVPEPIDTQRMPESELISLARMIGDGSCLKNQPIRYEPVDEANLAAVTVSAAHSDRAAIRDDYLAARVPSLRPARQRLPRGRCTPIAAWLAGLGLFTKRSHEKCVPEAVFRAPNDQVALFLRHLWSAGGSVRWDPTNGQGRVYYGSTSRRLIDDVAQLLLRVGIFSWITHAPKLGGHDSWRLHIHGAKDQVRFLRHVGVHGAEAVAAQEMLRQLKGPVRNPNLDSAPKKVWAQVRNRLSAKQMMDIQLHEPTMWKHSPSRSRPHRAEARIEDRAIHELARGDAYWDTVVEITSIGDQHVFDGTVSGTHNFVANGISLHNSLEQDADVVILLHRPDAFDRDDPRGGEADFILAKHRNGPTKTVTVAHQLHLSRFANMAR

[4] = target: T2, RNA-editing ligase 1, mitochondrial (Trypanosoma brucei brucei, UniProt P86926); experiment: inhibition of trypanosome RNA editing ligase – biochemical, fluorescence, Trypanosoma brucei, dose response (AID 1117295); format: functional
T2 sequence (P86926 whole entry): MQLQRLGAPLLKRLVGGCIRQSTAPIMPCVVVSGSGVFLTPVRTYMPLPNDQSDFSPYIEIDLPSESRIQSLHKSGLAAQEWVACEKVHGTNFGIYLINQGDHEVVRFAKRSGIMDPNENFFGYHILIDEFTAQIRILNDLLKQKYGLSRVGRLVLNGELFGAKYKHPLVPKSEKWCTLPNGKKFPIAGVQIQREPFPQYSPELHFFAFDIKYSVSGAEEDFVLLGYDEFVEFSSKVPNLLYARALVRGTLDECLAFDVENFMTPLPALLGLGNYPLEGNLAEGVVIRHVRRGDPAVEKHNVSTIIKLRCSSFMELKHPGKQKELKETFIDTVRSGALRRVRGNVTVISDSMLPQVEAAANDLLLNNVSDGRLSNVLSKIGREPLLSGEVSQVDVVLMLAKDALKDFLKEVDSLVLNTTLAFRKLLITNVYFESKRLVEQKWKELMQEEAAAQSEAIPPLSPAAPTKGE

[5] = target: T3, Tyrosine-protein phosphatase non-receptor type 7 (Homo sapiens, UniProt P35236); format: functional
T3 sequence (P35236 whole entry): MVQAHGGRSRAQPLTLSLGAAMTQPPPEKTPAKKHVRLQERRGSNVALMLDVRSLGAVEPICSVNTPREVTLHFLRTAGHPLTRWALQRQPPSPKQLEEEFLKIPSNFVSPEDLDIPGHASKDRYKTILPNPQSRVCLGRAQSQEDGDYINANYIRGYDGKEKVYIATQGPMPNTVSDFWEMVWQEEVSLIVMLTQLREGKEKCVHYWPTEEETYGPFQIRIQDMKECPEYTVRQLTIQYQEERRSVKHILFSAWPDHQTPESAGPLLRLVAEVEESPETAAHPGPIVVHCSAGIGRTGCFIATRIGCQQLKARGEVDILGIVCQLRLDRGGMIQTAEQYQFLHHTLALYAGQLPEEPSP

[6] = target: T4, Long-chain-fatty-acid--AMP ligase FadD28 (Mycobacterium tuberculosis, UniProt P9WQ59); experiment: Fluorescence polarization aasay to screen for inhibitors that compete for the binding of FadD28 to a bisubstrate Measured in Biochemical System Using Plate Reader - 2147-01_Inhibitor_Dose_CherryPick_Activity.; format: functional, Mycobacterium tuberculosis H37Rv
T4 sequence (P9WQ59 whole entry): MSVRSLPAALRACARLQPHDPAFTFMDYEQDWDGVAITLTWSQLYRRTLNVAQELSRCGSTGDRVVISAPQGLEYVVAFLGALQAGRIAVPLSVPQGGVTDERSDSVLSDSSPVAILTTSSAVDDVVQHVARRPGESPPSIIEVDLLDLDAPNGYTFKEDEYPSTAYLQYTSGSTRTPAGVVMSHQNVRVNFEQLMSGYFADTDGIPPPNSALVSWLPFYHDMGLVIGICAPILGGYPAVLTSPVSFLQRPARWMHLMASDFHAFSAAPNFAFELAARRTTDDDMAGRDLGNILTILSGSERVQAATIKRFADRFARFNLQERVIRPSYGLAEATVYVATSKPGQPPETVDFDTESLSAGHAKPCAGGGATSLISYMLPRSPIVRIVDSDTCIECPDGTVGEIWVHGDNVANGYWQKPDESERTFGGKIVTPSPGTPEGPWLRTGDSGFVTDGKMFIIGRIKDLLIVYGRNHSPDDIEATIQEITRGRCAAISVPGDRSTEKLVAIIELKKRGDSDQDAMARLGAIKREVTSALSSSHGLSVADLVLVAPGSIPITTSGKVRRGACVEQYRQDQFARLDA

Streptokinase A = target: T5, Streptokinase A (Streptococcus pyogenes serotype M1, UniProt P10520); experiment: viability-normalized secreted streptokinase activity reduction – plasminogen activation absorbance, OD405, dose response (AID 1914); format: functional, Streptococcus pyogenes M1 GAS;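 further: secreted streptokinase activity via plasminogen activation per viability signal from cell pellet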
T5 sequence (P10520 whole entry): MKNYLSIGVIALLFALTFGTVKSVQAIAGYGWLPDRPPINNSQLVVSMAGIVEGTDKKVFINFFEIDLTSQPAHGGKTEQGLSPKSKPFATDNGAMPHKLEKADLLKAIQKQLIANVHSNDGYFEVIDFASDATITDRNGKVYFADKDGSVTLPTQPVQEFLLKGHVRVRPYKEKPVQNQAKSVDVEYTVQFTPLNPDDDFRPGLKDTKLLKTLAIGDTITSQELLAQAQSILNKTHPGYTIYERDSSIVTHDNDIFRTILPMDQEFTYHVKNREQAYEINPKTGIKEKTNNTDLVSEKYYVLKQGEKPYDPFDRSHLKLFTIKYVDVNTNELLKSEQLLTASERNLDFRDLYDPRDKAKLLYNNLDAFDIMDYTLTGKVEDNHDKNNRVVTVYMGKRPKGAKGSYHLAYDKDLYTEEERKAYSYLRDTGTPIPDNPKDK

O=C1C(Cl)=C(NCCN2CCCCC2)C(=O)c2ccccc21
EC50 [1]: 0.509 µM (active)
EC50 [2]: 0.798 µM (active)
AC50 [3]: 14 µM (active)

Cc1oc2c(c1C(=O)c1ccccc1)C(=O)C(=O)c1ccccc1-2
IC50 [4]: 10.3 µM (inactive)

O=C1CCCC2=C1C1(O)C(=O)c3ccccc3C1(O)O2 (centres undefined)
AC50 [3]: 5.49 µM (active)

Nc1ccc2nc3c(O)nc(S)nc3nc2c1
IC50 [5]: > 79.4 µM (inactive)
AC50 [6]: 46.1 µM (active)
IC50 [4]: 2.76 µM (active)

CC(/C=C1\SC(=S)N(NS(=O)(=O)c2ccccc2)C1=O)=C\c1ccccc1
EC50 (Streptokinase A): 21.4 µM (active)
AC50 [6]: > 100 µM (inactive)

CCN1/C(=C/c2ccc3cc(C)ccc3[n+]2CC)Sc2cc(C)c(C)cc21
EC50 (Streptokinase A): > 150 µM (not active)
EC50 [1]: < 0.1 µM (active)
EC50 [2]: 5.67 µM (active)

O=C(O)COc1ccc(/C=N/NC(=O)c2ccc(-c3csc(Nc4ccc(Cl)cc4)n3)cc2)cc1
IC50 [5]: < 1.24 µM (active)
